Results taken from patent US12311033B2, “Lipid nanoparticle formulations and compositions” (CAPSTAN THERAPEUTICS, INC., priority 2023, dated 2025).

What was measured:
[1] = Time course of ionizable cationic lipid (LC-MS) and mRNA (digital PCR) in plasma, spleen, liver; format: in vivo; conditions: mice; for plasma levels of lipid at 7 days: CD8-targeted tLNP F9 (CICL1) or BF1 (ALC-0315)
Procedure: To obtain more detailed data a similar experiment was conducted in mice where it was possible to obtain a time course of disappearance of the ionizable cationic lipid and the encapsulated mRNA as well. Mice were intravenously administered 2 mg/kg tLNP of composition BF1 (comprising ALC-0315) or F9 (comprising CICL1) targeted to mouse CD8 and encapsulating an anti-human CD19 CAR, and monitored through 7 days. At each timepoint, 3 mice were sacrificed, and liver, spleen, and plasma were processed for LC-MS-based detection of lipid concentration and digital PCR detection of the mRNA. In plasma, mRNA level was normalized to a known amount of mRNA spiked in a control. In spleen and liver mRNA level was normalized to mRNA for the housekeeping gene GAPDH.

[2] = Ionizable cationic lipid in plasma, liver and spleen 24 hours after tLNP, LC/MS/MS; format: in vivo, cynomolgus macaques
Procedure: Samples were taken from cynomolgus macaques that had been intravenously administered either BF1 or F5 tLNPs (two each) at a dosage of 3 mg mRNA/kg in the preceding example. The tLNPs were conjugated to anti-CD5 mentioned in Example 2 as the targeting moiety. 24 hours after administration the animals were sacrificed and plasma, liver, and spleen tissue collected from two animals in each group and assessed by mass spectrometry for presence of these ionizable cationic lipids in order to assess biodegradability and biodistribution of these ionizable cationic lipids.
Briefly, plasma was stabilized for mass spectrometry by addition of 10 μL of formic acid per mL of K2EDTA plasma. Spleen and liver tissue were homogenized in 19 parts of homogenization buffer (50:40:10 0.1% formic acid in 1:1 methanol: acetone/10 mM ammonium formate with 0.2% formic acid/dimethylformamide (DMF)) to 1 part tissue (v/w) using a Geno/Grinder® (SPEX® SamplePrep) set to two minutes at 1500 rpms.
Calibration curves and quality control samples were prepared by spiking control matrix (plasma or homogenate) with CICL1 or ALC-0315 in DMF. The extraction was performed on wet ice by adding 300 μL of crashing solvent (0.1% formic acid in 1:1 methanol: acetonitrile) to 25 μL of sample to which 50 μL of internal standard was added (1:1 isopropyl alcohol: water). The extracts were mixed for four minutes at 1500 rpms and then centrifuged at 3000×g for ten minutes. 200 μL of supernatant was transferred to a clean 96 well plate for LC/MS/MS analysis.
Chromatography was performed on a Waters XBridge BEH C8 column (130 Å, 2.5 μm, 2.1×30 mm) using the following gradient. Mobile phase A (10 mM ammonium format in water with 0.2% formic acid) was held at 20% for 0.3 minutes before being reduced to 5% over 1.2 minutes. This condition was held for one minute before being returned to 80% B (0.1% formic acid in 1:1 methanol: acetonitrile) in 0.1 minutes. The column was then held at 80% B for 1.4 minutes. LC flow rate was held at 0.5 mL/min and the autosampler held at 2-8° C. The mass spectrum was obtained with a triple quadrupole apparatus using atmospheric pressure ionization (Sciex).
Quantitation was performed using a 1/X2 quadratic regression using the peak area for transition 1013.6→968.4 (CICL1) or 766.6→748.4 (ALC-0315) over peak area of transition 1040.6→995.4 of the internal standard.

[3] = target: signal regulatory protein a (SIRPα) (Homo sapiens, UniProt P78324); conditions: reported in Rodriguez et al., 2013; cited from earlier work
[4] = 24 hours after BF1 tLNP, 3 mg mRNA/kg

Sequence of signal regulatory protein a (SIRPα) (P78324 31-504): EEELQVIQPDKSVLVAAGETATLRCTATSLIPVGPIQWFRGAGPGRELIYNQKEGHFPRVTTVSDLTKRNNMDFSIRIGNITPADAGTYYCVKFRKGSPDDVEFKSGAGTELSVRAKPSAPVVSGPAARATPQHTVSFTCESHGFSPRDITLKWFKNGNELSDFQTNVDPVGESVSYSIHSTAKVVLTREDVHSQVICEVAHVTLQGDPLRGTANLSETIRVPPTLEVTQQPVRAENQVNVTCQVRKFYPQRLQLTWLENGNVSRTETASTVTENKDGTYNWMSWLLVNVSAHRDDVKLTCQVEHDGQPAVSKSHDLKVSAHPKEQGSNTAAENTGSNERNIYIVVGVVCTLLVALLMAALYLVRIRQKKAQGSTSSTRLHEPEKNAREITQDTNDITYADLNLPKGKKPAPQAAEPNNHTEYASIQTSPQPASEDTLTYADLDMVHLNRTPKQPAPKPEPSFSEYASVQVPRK

concentration in liver, fold greater (reference not given) [2, 4] | concentration in spleen, fold greater (reference not given) [2, 4] | concentration in blood, fold greater than CICL1 ([2]; 24 hours after BF1 versus F5 tLNP, 3 mg mRNA/kg) | Compound | time after administration by which lipid levels were falling in the liver ([1]; 2 mg/kg F9 tLNP) | time after administration by which lipid levels were falling in the spleen ([1]; 2 mg/kg F9 tLNP) | plasma levels of lipid at 7 days ([1]; 2 mg/kg i.v.) | concentrations in blood, liver, and spleen relative to each other ([2]; 24 hours after F5 tLNP, 3 mg mRNA/kg) | amount of lipid present in blood, liver, and spleen ([2]; 24 hours after F5 tLNP, 3 mg mRNA/kg i.v.) | liver concentration, fold less than for ALC-0315 ([2]; 24 hours, 3 mg mRNA/kg) | spleen concentration, fold less than for ALC-0315 ([2]; 24 hours, 3 mg mRNA/kg) | biodegradability ([2]; clearance data, at least at the initial step) | lipid levels in spleen and liver ([1]; 2 mg/kg i.v., through 7 days) | binding affinity to SIRPα, fold stronger than full-length CD47 protein [3]
 |  |  | CCCCCCCCC(=O)OCC(COC(=O)CCCCCCCC)CC(=O)OCCN(CCOC(=O)CC(COC(=O)CCCCCCCC)COC(=O)CCCCCCCC)C(=O)OCCN(C)C [CICL1] | ≤ 2 h | ≤ 1 h | returned to baseline | ≤ 2 fold | only very small amounts | approximately 127 fold | ~35 fold | much more biodegradable than ALC-0315 |  | 
approximately 14 fold | ~11 fold | about 6 fold | CCCCCCCCC(CCCCCC)C(=O)OCCCCCCN(CCCCO)CCCCCCOC(=O)C(CCCCCC)CCCCCCCC (centres unmarked) [ALC-0315, [(4-Hydroxybutyl)azanediyl]di(hexane-6,1-diyl)bis(2-hexyldecanoate), reference compound] |  |  | still detected |  |  |  |  |  | remained almost unchanged throughout the 7 days | 
 |  |  | NYTCEVTELSREGKTVIELK (SEQ ID NO: 3) [CD47 peptide] |  |  |  |  |  |  |  |  |  | 10 fold
